Target: T1, rh-proNGF (Homo sapiens, UniProt P01138)
T1 construct: gene NGF; proNGF without signal peptide; homodimer
Assay: ITC, global fit of two titrations (SEDPHAT)
Format: binding
Settings: read-out: Best-fit value
From the text: ITC, global fit of two titrations (SEDPHAT) on rh-proNGF

T1 sequence (P01138 19-241): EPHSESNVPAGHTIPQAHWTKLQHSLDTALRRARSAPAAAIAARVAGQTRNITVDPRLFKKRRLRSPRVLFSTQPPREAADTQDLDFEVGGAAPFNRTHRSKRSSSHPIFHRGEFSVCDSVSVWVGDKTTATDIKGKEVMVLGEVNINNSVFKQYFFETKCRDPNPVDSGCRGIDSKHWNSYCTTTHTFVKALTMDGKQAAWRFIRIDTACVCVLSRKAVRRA

Kd: 39.7 µM
Structure (SMILES): Nc1ncnc2c1ncn2[C@@H]1O[C@H](COP(=O)(O)OP(=O)(O)OP(=O)(O)O)[C@@H](O)[C@H]1O [ATP]

Reference: PMC9878617, “Distinct conformational changes occur within the intrinsically unstructured pro‐domain of pro‐Nerve Growth Factor in the presence of ATP and Mg^2+” (Protein Science : A Publication of the Protein Society, 2023)
